US10538516B2, “Oxadiazole derivative and pharmaceutical containing same” (National Center for Geriatrics and Gerontology, priority 2015, dated 2020)
Counter-ions that a name gives are not always drawn. Like-named read-outs stand apart in the source and are kept apart here.

Molecular target: T1, GAβ-dependent amyloid fibril formation (Human Aβ1-40 + GM1-containing liposome) (Homo sapiens, UniProt P05067)
T1 construct: Human Aβ1-40 (cat. #4307-v, prepared by Peptide Institute); purchased Peptide Institute 4307-v
T1 sequence (P05067 672-711 limits assumed): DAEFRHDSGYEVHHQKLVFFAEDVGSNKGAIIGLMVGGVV
Test: Thioflavin T (ThT) assay of GAβ-dependent amyloid fibril formation (Aβ1-40 with GM1-containing liposome)
Format: biochemical
Summary of the method: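 Human Aβ1-40 (75 μM stock) pre-incubated 10 min at room temperature with compound (75 or 15 μM solution), then GM1-containing cholesterol/sphingomyelin liposome added and incubated 37° C, 18 hours. Fibrils quantified by ThT fluorescence (ex 430/em 490 nm, pH 8.5 glycine buffer); inhibition as ratio to compound-free control.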

[1] = inhibition rate against amyloid fibril formation, final concentration of the compound 25 μM, read-out: Inhibitory activity ABC evaluation
[2] = read-out: ThT Inhibitory activity (% inhibition)
[3] = @25 μM, read-out: ThT Inhibitory activity (% inhibition)

SMILES	inhibition at 25 µM [1] [%]	further results
O=C(N[C@@H](CO)c1nc(-c2ccc(OC(F)(F)F)cc2)no1)c1c[nH]c2cc(Cl)ccc12 [Compound 76, (S)-6-chloro-N-(2-hydroxy-1-[3-{4-(trifluoro-methoxy)phenyl}-1,2,4-oxadiazol-5-yl}ethyl)-1H-indole-3-carboxamide]	40 to 80	–
O[C@@H]1C[C@@H](c2nc(-c3ccc(OC(F)(F)F)cc3)no2)N(Cc2ccc(Cl)cc2)C1 [Compound 77, (3R,5S)-1-(4-chlorobenzyl)-5-[3-{4-(trifluoro-methoxy)phenyl}-1,2,4-oxadiazol-5-yl]pyrrolidin-3-ol]	40 to 80	–
O=C(NC(CO)c1nc(-c2ccc(O)cc2)no1)c1ccc(Cl)cc1 (stereo not shown) [Compound 78, 4-chloro-N-{2-hydroxy-1-[3-(4-hydroxyphenyl)-1,2,4-oxadiazol-5-yl]ethyl}benzamide]	> 80	inhibition at 5 µM [2]: 52%; inhibition at 25 µM [3]: 89%
N#Cc1ccc(N2CC(c3nc(-c4ccc(O)cc4)no3)CC2=O)cc1 (stereo not shown) [Compound 79, 4-[4-{3-(4-hydroxyphenyl)-1,2,4-oxadiazol-5-yl}-2-oxopyrrolidin-1-yl]benzonitrile]	< 40	–
C[C@@H](O)[C@H](NC(=O)c1ccc(Cl)cc1)c1nc(-c2ccc(OC(F)(F)F)cc2)no1 [Compound 80, 4-chloro-N-((1S,2R)-2-hydroxy-1-[3-{4-(trifluoro-methoxy)phenyl}-1,2,4-oxadiazol-5-yl]propyl) benzamide]	> 80	inhibition at 25 µM [3]: 80%
O=C(O)C[C@H](NC(=O)c1ccc(Cl)cc1)c1nc(-c2ccc(OC(F)(F)F)cc2)no1 [Compound 81, (S)-3-(4-chlorobenzamide)-3-{3-[4-(trifluoromethoxy)phenyl]-1,2,4-oxadiazol-5-yl}propanoic acid]	40 to 80	–
O=C(c1ccc(Cl)cc1)N1C[C@H](O)C[C@H]1c1nc(-c2ccc(OC(F)(F)F)cc2)no1 [Compound 82, (4-chlorophenyl) ((2S,4R)-4-hydroxy-2-[3-{4-(trifluoro-methoxy)phenyl}-1,2,4-oxadiazol-5-yl]pyrrolidin-1-yl)methanone]	–	Inhibitory activity ABC evaluation (inhibition rate against amyloid fibril formation, final concentration of the compound 25 μM, 25 µM): C (the inhibition rate of less than 40% was evaluated as C)
O=C(N[C@H](CO)c1nc(-c2ccc(OC(F)(F)F)cc2)no1)c1ccc(Cl)cc1 [Compound 83, (R)-4-chloro-N-(2-hydroxy-1-[3-{4-(trifluoromethoxy)phenyl}-1,2,4-oxadiazol-5-yl]ethyl)benzamide]	> 80	–
O=C1CC[C@@H](c2nc(-c3ccc(OC(F)(F)F)cc3)no2)N1C(=O)c1ccc(Cl)cc1 [Compound 84, (S)-1-(4-chloro-benzoyl)-5-[3-{4-(trifluoromethoxy)phenyl}-1,2,4-oxadiazol-5-yl]pyrrolidin-2-one]	40 to 80	–
NC(=O)C[C@H](NC(=O)c1ccc(Cl)cc1)c1nc(-c2ccc(OC(F)(F)F)cc2)no1 [Compound 86, (S)-N-(3-amino-3-oxo-1-{3-[4-(trifluoromethoxy)phenyl]-1,2,4-oxadiazol-5-yl}propyl)-4-chlorobenzamide]	< 40	–
CN(C)C(=O)C[C@H](NC(=O)c1ccc(Cl)cc1)c1nc(-c2ccc(OC(F)(F)F)cc2)no1 [Compound 87, (S)-4-chloro-N-(3-(dimethylamino)-3-oxo-1-[3-{4-(trifluoromethoxy)phenyl}-1,2,4-oxadiazol-5-yl]propyl) benzamide]	40 to 80	–
CNC(=O)C[C@H](NC(=O)c1ccc(Cl)cc1)c1nc(-c2ccc(OC(F)(F)F)cc2)no1 [Compound 88, (S)-4-chloro-N-(3-(methylamino)-3-oxo-1-[3-{4-(trifluoromethoxy)phenyl}-1,2,4-oxadiazol-5-yl]propyl) benzamide]	< 40	–
Oc1ccc(-c2noc(C(O)Cc3c[nH]c4ccccc34)n2)cc1 (stereo not shown) [Compound 89, 4-[5-{1-hydroxy-2-(1H-indol-3-yl)ethyl}-1,2,4-oxadiazol-3-yl]phenol]	40 to 80	–
O=C1CC(CO)(c2nc(-c3ccc(O)c(F)c3)no2)CN1c1ccc(Cl)cc1 (stereo not shown) [Compound 90, 1-(4-chlorophenyl)-4-{3-(3-fluoro-4-hydroxyphenyl)-1,2,4-oxadiazol-5-yl}-4-(hydroxy-methyl)pyrrolidin-2-one]	40 to 80	–
O=S(=O)(N[C@@H](CO)c1nc(-c2ccc(OC(F)(F)F)cc2)no1)c1cccc(Cl)c1 [Compound 91, (S)-3-chloro-N-(2-hydroxy-1-[3-{4-(trifluoromethoxy)phenyl}-1,2,4-oxadiazol-5-yl]ethyl)benzenesulfonamide]	40 to 80	–
O=C(N[C@@H](CO)c1nc(-c2ccc(OC(F)(F)F)cc2)no1)c1ccccc1 [Compound 92, (S)-N-(2-hydroxy-1-[3-{4-(tri-fluoromethoxy)phenyl}-1,2,4-oxadiazol-5-yl]ethyl)benzamide]	> 80	inhibition at 5 µM [2]: 51%; inhibition at 25 µM [3]: 81%
O=C(N[C@@H](CO)c1nc(-c2ccc(OC(F)(F)F)cc2)no1)c1cccc(F)c1 [Compound 94, (S)-3-fluoro-N-(2-hydroxy-1-[3-{4-(trifluoromethoxy)phenyl}-1,2,4-oxadiazol-5-yl]ethyl)benzamide]	> 80	–

SMILES	inhibition at 25 µM [1] [%]	further results
O=C(Nc1ccc(Cl)cc1)N[C@@H](CO)c1nc(-c2ccc(OC(F)(F)F)cc2)no1 [Compound 95, (S)-1-(4-chloro-phenyl)-3-(2-hydroxy-1-[3-{4-(trifluoromethoxy)phenyl}-1,2,4-oxadiazol-5-yl]ethyl)urea]	< 40	–
O=C(c1ccc(Cl)cc1)N(CCO)[C@@H](CO)c1nc(-c2ccc(OC(F)(F)F)cc2)no1 [Compound 96, (S)-4-chloro-N-(2-hydroxy-1-{3-[4-(trifluoromethoxy)phenyl]-1,2,4-oxadiazol-5-yl}ethyl)-N-(2-hydroxyethyl)benzamide]	40 to 80	–
OC[C@H](NC(=S)Nc1ccc(Cl)cc1)c1nc(-c2ccc(OC(F)(F)F)cc2)no1 [Compound 97, (S)-1-(4-chloro-phenyl)-3-(2-hydroxy-1-[3-{4-(trifluoromethoxy)phenyl}-1,2,4-oxadiazol-5-yl]ethyl)thiourea]	40 to 80	–
O=C(N[C@@H](CO)c1nc(-c2ccc(OC(F)(F)F)cc2)no1)c1ccc(O)c(Cl)c1 [Compound 98, (S)-3-chloro-4-hydroxy-N-(2-hydroxy-1-[3-{4-(trifluoromethoxy)phenyl}-1,2,4-oxadiazol-5-yl]ethyl)benzamide]	< 40	–
O=C(N[C@@H](CO)c1nc(-c2ccc(O)c(F)c2)no1)c1ccc(Cl)cc1 [Compound 99, (S)-4-chloro-N-(1-(3-(3-fluoro-4-hydroxyphenyl)-1,2,4-oxadiazol-5-yl)-2-hydroxy-ethyl)benzamide]	40 to 80	–
N#Cc1ccc(C(=O)N[C@@H](CO)c2nc(-c3ccc(O)c(F)c3)no2)cc1 [Compound 100, (S)-4-cyano-N-(1-(3-(3-fluoro-4-hydroxyphenyl)-1,2,4-oxadiazol-5-yl)-2-hydroxy-ethyl)benzamide]	40 to 80	–
OC(Cc1c[nH]c2ccccc12)c1nc(-c2ccc(OC(F)(F)F)cc2)no1 (stereo not shown) [Compound 101, 2-(1H-indol-3-yl)-1-{3-[4-(trifluoromethoxy)phenyl]-1,2,4-oxadiazol-5-yl}ethan-1-ol]	> 80	inhibition at 25 µM [3]: 87%
O=C(NC(CO)(CO)c1nc(-c2ccc(OC(F)(F)F)cc2)no1)c1ccc(Cl)cc1 [Compound 102, 4-chloro-N-(1,3-dihydroxy-2-{3-[4-(trifluoromethoxy)phenyl]-1,2,4-oxadiazol-5-yl}propan-2-yl)benzamide]	40 to 80	–
O=C1CC(c2nnc(-c3ccc(OC(F)(F)F)cc3)o2)CN1c1ccc(Cl)cc1 (stereo not shown) [Compound 103, 1-(4-chlorophenyl)-4-{5-[4-(trifluoromethoxy)phenyl]-1,3,4-oxadiazol-2-yl}pyrrolidin-2-one]	40 to 80	–
O=C(N[C@@H](CO)c1nnc(-c2ccc(OC(F)(F)F)cc2)o1)c1ccc(Cl)cc1 [Compound 104, (S)-4-chloro-N-(2-hydroxy-1-{5-[4-(trifluoromethoxy)phenyl]-1,3,4-oxadiazol-2-yl}ethyl)benzamide]	40 to 80	inhibition at 25 µM [3]: 75%
CS(=O)(=O)Nc1ccc(-c2nnc([C@H](CO)NC(=O)c3ccc(Cl)cc3)o2)cc1 [Compound 105, (S)-4-chloro-N-(2-hydroxy-1-(5-(4-(methyl-sulfonamido)phenyl)-1,3,4-oxadiazol-2-yl)ethyl)benzamide]	< 40	–
N#Cc1cccc(-c2nnc([C@H](CO)NC(=O)c3ccc(Cl)cc3)o2)c1 [Compound 106, (S)-4-chloro-N-(1-(5-(3-cyanophenyl)-1,3,4-oxadiazol-2-yl)-2-hydroxyethyl) benzamide]	40 to 80	–
O=C(N[C@H](CO)c1nnc(-c2ccc(OC(F)(F)F)cc2)o1)c1ccc(Cl)cc1 [Compound 107, (R)-4-chloro-N-(2-hydroxy-1-(5-(4-(trifluoro-methoxy)phenyl)-1,3,4-oxzdiazol-2-yl)ethyl)benzamide]	40 to 80	–
CS(=O)(=O)Nc1ccc(-c2nnc([C@@H](CO)NC(=O)c3ccc(Cl)cc3)o2)cc1 [Compound 108, (R)-4-chloro-N-(2-hydroxy-1-(5-(4-(methyl-sulfonamido)phenyl)-1,3,4-oxzdiazol-2-yl)ethyl)benzamide]	< 40	–
N#Cc1cccc(-c2nnc([C@@H](CO)NC(=O)c3ccc(Cl)cc3)o2)c1 [Compound 109, (R)-4-chloro-N-(1-(5-(3-cyanophenyl)-1,3,4-oxadiazol-2-yl)-2-hydroxyethyl) benzamide]	< 40	–
N[C@@H](Cc1c[nH]c2ccccc12)c1nnc(-c2ccc(OC(F)(F)F)cc2)o1 [Compound 110, (S)-2-(1H-indol-3-yl)-1-(5-(4-(trifluoro-methoxy)phenyl)-1,3,4-oxadiazol-2-yl) ethan-1-amine hydrochloride]	40 to 80	–
